Reference: ChEMBL document CHEMBL1681704, “Design and synthesis of novel allosteric MEK inhibitor CH4987655 as an orally available anticancer agent” (Bioorg Med Chem Lett, 2011)
≈ marks a conversion by molar mass, not a printed value. Calls of active or inactive are those of the source. No cut-off for these calls is given here.

Assays:
[1] = Half life in human liver microsomes at 1 uM; assay type: ADME, Microsome
QG-56 = assay: Cytotoxicity against human QG56 cells after 4 days; assay type: functional, cell-based; details: QG-56, 96 h
[2] = Inhibition of MEK after 30 mins
HT-29 [3] = assay: Cytotoxicity against human HT-29 cells after 4 days; assay type: functional, cell-based; details: HT-29, 96 h
[4] = Half life in mouse liver microsomes at 1 uM; assay type: ADME, Microsome
[5] = Solubility in 50 mM phosphate buffer at pH 6.5 after 2 hrs; assay type: physicochemical
[6] = Toxicity in human HT-29 cells xenografted BALB/c nu/nu mouse assessed as maximum tolerable dose; assay type: organism-based; details: in vivo
HT-29 [7] = assay: Antitumor activity against human HT-29 cells xenografted in BALB/c nu/nu mouse assessed as tumor growth inhibition at maximum tolerable dose administered as po qd for 14 days; assay type: functional
Cynomolgus monkey = assay: In vivo metabolic stability in cynomolgus monkey assessed as plasma concentration at 2 mg/kg, po; assay type: ADME, organism-based, Macaca fascicularis; design: dose 2 mg/kg, route oral
[8] = MRT (infinity) in cynomolgus monkey at 6 mg/kg, po; assay type: ADME, organism-based, Macaca fascicularis; design: dose 6 mg/kg, route oral; details: in vivo
[9] = AUC (infinity) in cynomolgus monkey at 6 mg/kg, po; assay type: ADME, organism-based, Macaca fascicularis; design: time infinity, dose 6 mg/kg, route oral; details: plasma
[10] = Half life in cynomolgus monkey at 6 mg/kg, po; assay type: ADME, organism-based, Macaca fascicularis; design: dose 6 mg/kg, route oral; details: in vivo
[11] = Tmax in cynomolgus monkey at 6 mg/kg, po; assay type: ADME, organism-based, Macaca fascicularis; design: dose 6 mg/kg, route oral; details: in vivo
Brain = assay: Inhibition of MEK in human HT-29 cells xenografted in BALB/c nu/nu mouse brain assessed as phosphorylated ERK level at maximum tolerable dose administered as po; assay type: functional, cell-based
HT-29 [12] = assay: Inhibition of MEK in human HT-29 cells xenografted in BALB/c nu/nu mouse tumor assessed as phosphorylated ERK level at maximum tolerable dose administered as po; assay type: functional, cell-based; details: Neoplasm
[13] = Cmax in cynomolgus monkey at 6 mg/kg, po; assay type: ADME, organism-based, Macaca fascicularis; design: dose 6 mg/kg, route oral; details: in vivo
[14] = Antitumor activity against human H441 cells expressing Kras G12V mutant xenografted in CAnN.Cg-Foxn1 nu/CrlCrlj mouse assessed as tumor regression at maximum tolerable dose administered as po qd for 14 days; assay type: functional, NCI-H441
[15] = Tmax in cynomolgus monkey at 1.5 mg/kg, po; assay type: ADME, organism-based, Macaca fascicularis; design: dose 1.5 mg/kg, route oral; details: in vivo
[16] = MRT (infinity) in cynomolgus monkey at 3 mg/kg, po; assay type: ADME, organism-based, Macaca fascicularis; design: dose 3 mg/kg, route oral; details: in vivo
[17] = Tmax in cynomolgus monkey at 3 mg/kg, po; assay type: ADME, organism-based, Macaca fascicularis; design: dose 3 mg/kg, route oral; details: in vivo
[18] = Cmax in cynomolgus monkey at 1.5 mg/kg, po; assay type: ADME, organism-based, Macaca fascicularis; design: dose 1.5 mg/kg, route oral; details: in vivo
[19] = AUC (infinity) in cynomolgus monkey at 1.5 mg/kg, po; assay type: ADME, organism-based, Macaca fascicularis; design: time infinity, dose 1.5 mg/kg, route oral; details: plasma
[20] = AUC (infinity) in cynomolgus monkey at 3 mg/kg, po; assay type: ADME, organism-based, Macaca fascicularis; design: time infinity, dose 3 mg/kg, route oral; details: plasma
[21] = Half life in cynomolgus monkey at 1.5 mg/kg, po; assay type: ADME, organism-based, Macaca fascicularis; design: dose 1.5 mg/kg, route oral; details: in vivo
PANC-1 = assay: Antitumor activity against human PANC1 cells expressing Kras […] mutant xenografted in CAnN.Cg-Foxn1 nu/CrlCrlj mouse assessed as tumor regression at maximum tolerable dose administered as po qd for 14 days; assay type: functional
Cytochrome P450 3A4 = Cytochrome P450 3A4 (Homo sapiens, UniProt P08684); assay: Inhibition of CYP3A4; assay type: ADME
Chain of Cytochrome P450 3A4 (P08684 whole entry): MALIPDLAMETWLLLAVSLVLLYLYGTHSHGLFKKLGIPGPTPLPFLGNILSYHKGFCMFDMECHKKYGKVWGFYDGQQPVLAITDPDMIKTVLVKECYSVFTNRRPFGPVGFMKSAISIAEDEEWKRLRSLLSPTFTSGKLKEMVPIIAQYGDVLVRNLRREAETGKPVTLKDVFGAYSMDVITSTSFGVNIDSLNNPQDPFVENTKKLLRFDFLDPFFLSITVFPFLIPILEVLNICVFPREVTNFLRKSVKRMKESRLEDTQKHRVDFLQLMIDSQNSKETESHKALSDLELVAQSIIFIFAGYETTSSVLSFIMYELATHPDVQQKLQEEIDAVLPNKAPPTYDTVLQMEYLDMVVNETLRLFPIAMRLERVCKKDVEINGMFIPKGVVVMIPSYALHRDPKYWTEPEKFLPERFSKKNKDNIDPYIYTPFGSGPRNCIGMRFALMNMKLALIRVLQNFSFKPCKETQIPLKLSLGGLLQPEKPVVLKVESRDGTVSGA

[22] = Genotoxicity in Salmonella Typhimurium by Ames test; assay type: toxicity; details: salmonella enterica subsp. enterica serovar typhimurium
[23] = MRT (infinity) in cynomolgus monkey at 1.5 mg/kg, po; assay type: ADME, organism-based, Macaca fascicularis; design: dose 1.5 mg/kg, route oral; details: in vivo
[24] = Cmax in cynomolgus monkey at 3 mg/kg, po; assay type: ADME, organism-based, Macaca fascicularis; design: dose 3 mg/kg, route oral; details: in vivo
[25] = target: Voltage-gated inwardly rectifying potassium channel KCNH2 (Homo sapiens, UniProt Q12809); assay: Inhibition of human ERG
Chain of Voltage-gated inwardly rectifying potassium channel KCNH2 (Q12809 whole entry): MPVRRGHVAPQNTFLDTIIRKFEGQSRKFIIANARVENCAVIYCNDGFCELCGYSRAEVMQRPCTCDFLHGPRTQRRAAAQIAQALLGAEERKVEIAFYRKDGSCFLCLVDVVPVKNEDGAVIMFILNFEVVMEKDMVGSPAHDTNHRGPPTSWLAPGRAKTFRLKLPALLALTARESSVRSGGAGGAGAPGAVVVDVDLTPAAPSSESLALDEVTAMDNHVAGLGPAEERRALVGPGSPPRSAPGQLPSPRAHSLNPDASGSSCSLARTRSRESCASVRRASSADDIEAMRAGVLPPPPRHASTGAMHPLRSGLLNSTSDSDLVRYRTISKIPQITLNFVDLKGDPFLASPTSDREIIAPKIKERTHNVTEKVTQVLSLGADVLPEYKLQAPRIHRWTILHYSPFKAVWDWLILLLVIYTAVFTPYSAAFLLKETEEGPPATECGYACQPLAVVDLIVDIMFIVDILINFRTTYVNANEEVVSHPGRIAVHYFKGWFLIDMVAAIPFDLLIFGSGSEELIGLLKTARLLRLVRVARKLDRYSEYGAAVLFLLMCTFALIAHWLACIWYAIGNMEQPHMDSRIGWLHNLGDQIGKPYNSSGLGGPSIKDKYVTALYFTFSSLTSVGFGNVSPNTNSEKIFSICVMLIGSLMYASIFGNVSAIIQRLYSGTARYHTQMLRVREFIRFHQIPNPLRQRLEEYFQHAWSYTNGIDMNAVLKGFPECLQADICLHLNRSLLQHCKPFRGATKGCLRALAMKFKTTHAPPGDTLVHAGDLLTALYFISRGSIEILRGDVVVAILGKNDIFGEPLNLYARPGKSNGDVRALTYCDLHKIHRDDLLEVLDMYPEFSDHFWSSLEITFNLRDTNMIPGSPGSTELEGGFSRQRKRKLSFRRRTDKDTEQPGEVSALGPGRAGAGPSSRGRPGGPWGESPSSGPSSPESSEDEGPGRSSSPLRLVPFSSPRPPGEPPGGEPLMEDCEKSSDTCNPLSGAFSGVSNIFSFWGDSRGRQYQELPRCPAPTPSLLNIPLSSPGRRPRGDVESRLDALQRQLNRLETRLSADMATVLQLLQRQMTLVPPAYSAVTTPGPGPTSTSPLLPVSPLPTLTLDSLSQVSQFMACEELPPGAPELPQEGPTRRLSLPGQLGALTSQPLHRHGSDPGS

HT-29 [26] = assay: Antitumor activity against human HT-29 cells expressing b-Raf V600E mutant xenografted in CAnN.Cg-Foxn1 nu/CrlCrlj mouse assessed as tumor regression at maximum tolerable dose administered as po qd for 14 days; assay type: functional
[27] = Half life in cynomolgus monkey at 3 mg/kg, po; assay type: ADME, organism-based, Macaca fascicularis; design: dose 3 mg/kg, route oral; details: in vivo

O=C(NOCCO)c1cc(CN2CCOC2=O)c(F)c(F)c1Nc1ccc(I)cc1F
half-life at 1 µM [1]: > 6 h | IC50 (QG-56): 3060 nM | IC50 [2]: > 250 nM | IC50 (HT-29 [3]): 560 nM | half-life at 1 µM [4]: > 6 h | solubility at 2 h [5]: 284 µM (≈ 157 µg/mL)

CC(C)(O)CO/N=C/c1cc(C(=O)NOCCO)c(Nc2ccc(I)cc2F)c(F)c1F
half-life at 1 µM [1]: > 6 h | IC50 (QG-56): 128 nM | IC50 [2]: 37 nM | IC50 (HT-29 [3]): 40 nM | half-life at 1 µM [4]: > 6 h | MTD [6]: 100 mg/kg | TGI (HT-29 [7]): 85%

O=C(NOC[C@H](O)CO)c1ccc(F)c(F)c1Nc1ccc(I)cc1F [MIRDAMETINIB]
Stability (Cynomolgus monkey): Stable | MRT inf [8]: 7.3 h | AUC(0-inf) [9]: 7900 ng·h/mL | half-life [10]: 5.5 h | Tmax [11]: 1.1 h | inhibition (Brain): Active | inhibition (HT-29 [12]): Active | Cmax [13]: 1700 ng/mL

CC(=O)NCCO/N=C/c1cc(C(=O)NOCCO)c(Nc2ccc(I)cc2F)c(F)c1F
half-life at 1 µM [1]: > 6 h | IC50 (QG-56): 199 nM | IC50 [2]: 48 nM | IC50 (HT-29 [3]): 86 nM | half-life at 1 µM [4]: > 6 h | MTD [6]: > 200 mg/kg | TGI (HT-29 [7]): 99%

O=C(NOCCO)c1cc(CN2OCCCC2=O)c(F)c(F)c1Nc1ccc(I)cc1F [RO-4987655]
Activity [14]: 70% | Tmax [15]: 1.3 h | MRT inf [16]: 8.8 h | Tmax [17]: 2.5 h | Cmax [18]: 400 ng/mL | half-life at 1 µM [1]: 1.93 h | AUC(0-inf) [19]: 2200 ng·h/mL | AUC(0-inf) [20]: 7400 ng·h/mL | MRT inf [8]: 7.3 h | half-life [21]: 6.6 h | AUC(0-inf) [9]: 10400 ng·h/mL | Activity (PANC-1): 70% | half-life [10]: 5 h | Tmax [11]: 1.5 h | IC50 (Cytochrome P450 3A4): > 100000 nM | Activity [22]: Non-toxic | half-life at 1 µM [4]: > 6 h | inhibition (Brain): inactive | MRT inf [23]: 8.4 h | Cmax [24]: 1000 ng/mL | inhibition (INH) [25]: Not Active | inhibition (HT-29 [12]): Active | Activity (HT-29 [26]): 70% | Cmax [13]: 2100 ng/mL | half-life [27]: 6 h

CS(=O)(=O)CCO/N=C/c1cc(C(=O)NOCCO)c(Nc2ccc(I)cc2F)c(F)c1F
half-life at 1 µM [1]: 1.5 h | IC50 (QG-56): 24 nM | IC50 [2]: 67 nM | IC50 (HT-29 [3]): 27 nM | half-life at 1 µM [4]: > 6 h | MTD [6]: > 200 mg/kg | solubility at 2 h [5]: 1 µM (≈ 0.601 µg/mL) | TGI (HT-29 [7]): 98%

O=C(NOCCO)c1cc(CN2OCCC2=O)c(F)c(F)c1Nc1ccc(I)cc1F
half-life at 1 µM [1]: > 6 h | half-life at 1 µM [4]: > 6 h | MTD [6]: 12.5 mg/kg

O=C(NOCCO)c1cc(CN2CCCC2=O)c(F)c(F)c1Nc1ccc(I)cc1F
half-life at 1 µM [1]: 3.08 h | IC50 (QG-56): 57 nM | IC50 [2]: 85 nM | IC50 (HT-29 [3]): 20 nM | half-life at 1 µM [4]: 2.07 h | solubility at 2 h [5]: 156 µM (≈ 85.7 µg/mL)

C#Cc1ccc(Nc2c(C(=O)NOCCO)cc(/C=N/OCCO)c(F)c2F)c(F)c1
half-life at 1 µM [1]: 1.33 h | IC50 (QG-56): 160 nM | IC50 [2]: 235 nM | IC50 (HT-29 [3]): 150 nM | half-life at 1 µM [4]: 2.25 h | MTD [6]: > 200 mg/kg | TGI (HT-29 [7]): 82%

O=C(NOCCO)c1cc(/C=N\OCCO)c(F)c(F)c1Nc1ccc(I)cc1F
half-life at 1 µM [1]: > 6 h | IC50 (QG-56): 6 nM | IC50 [2]: 15 nM | IC50 (HT-29 [3]): 2.4 nM | half-life at 1 µM [4]: > 6 h | MTD [6]: 12.5 mg/kg | TGI (HT-29 [7]): 95%

CON(Cc1cc(C(=O)NOCCO)c(Nc2ccc(I)cc2F)c(F)c1F)C(C)=O
half-life at 1 µM [1]: 1.07 h | half-life at 1 µM [4]: 0.6 h | MTD [6]: 25 mg/kg | solubility at 2 h [5]: 116 µM (≈ 64.2 µg/mL)

O=C(NOCCO)c1cc(/C=N/OCCO)c(F)c(F)c1Nc1ccc(I)cc1F
half-life at 1 µM [1]: 1.08 h | IC50 (QG-56): 160 nM | IC50 [2]: 100 nM | IC50 (HT-29 [3]): 80 nM | half-life at 1 µM [4]: 3.95 h | MTD [6]: 100 mg/kg | TGI (HT-29 [7]): 82%

O=C(NOCCO)c1cc(CNOCCO)c(F)c(F)c1Nc1ccc(I)cc1F
half-life at 1 µM [1]: > 6 h | half-life at 1 µM [4]: 2.13 h | MTD [6]: 100 mg/kg

O=C(NOCCO)c1cc(COCCO)c(F)c(F)c1Nc1ccc(I)cc1F
half-life at 1 µM [1]: > 6 h | half-life at 1 µM [4]: > 6 h | MTD [6]: 50 mg/kg

O=C(NOCCO)c1cc(CN2OCCOC2=O)c(F)c(F)c1Nc1ccc(I)cc1F
half-life at 1 µM [1]: 0.633 h | IC50 (QG-56): 56 nM | IC50 [2]: 42 nM | IC50 (HT-29 [3]): 17 nM | half-life at 1 µM [4]: 2.1 h | solubility at 2 h [5]: 57 µM (≈ 32.3 µg/mL)
